In ChEMBL document CHEMBL4725243, “High-Throughput Screening for the Discovery of Enzyme Inhibitors” (J Med Chem, 2020):
pIC50: −log10 of the molar value.

Columns and labels:
[1] = Inhibition of Mycobacterium tuberculosis kanamycin resistance enzyme Eis preincubated for 10 mins followed by AcCoA addition and measured after 5 mins at interval of 30 sec for 20 mins by UV-Vis assay
[2] = Inhibition of Mycobacterium tuberculosis kanamycin resistance enzyme Eis after 5 mins in presence of AcCoA by Ellman's reagent based assay

Cn1c2ccc(F)cc2c2nnc(SCCN3CCCCC3)nc21
pIC50 [1]: 7.52

O=C(C[n+]1ccn2cccc2c1-c1ccccc1)c1ccccc1
pIC50 [2]: 7.19

Cc1ccc(C(=O)C[n+]2ccn3cccc3c2-c2ccc(F)cc2)cc1
pIC50 [2]: 7.10
